Source: patent US10154997B2, “Treatment of parasitic diseases using KDAC inhibitor compounds” (Washington University, priority 2015, dated 2018)
Read-outs that look alike come from different tables or passages of the source.

What was measured:
[1] = system: human cancer cell lines; assay: Activity on human cancer cell lines; type: cell-based
[2] = system: L929 mouse fibroblast; assay: Cytotoxicity viability assay (CYT vt); type: cell-based
[3] = system: parasites (nematodes and protists); assay: Compound screening in parasites, summary statements
[4] = system: B. malayi; assay: Endoparasites dose response assay (Endoparasites_DR), B. malayi; parameters: species or system Brugia malayi; conditions: nematode B. malayi
[5] = system: H. contortus; assay: Endoparasites dose response assay (Endoparasites_DR), H. contortus; conditions: Haemonchus contortus, 96 h

Cn1cc(/C=C/C(=O)c2cccc(NC(=O)OC(C)(C)C)c2)cc1C(=O)NO [MC2776]
IC50 [1]: > 10 µM | IC50 ([2]; host-cell line, read-out: activity in the host-cell line): > 10 µM | efficacy in the protists ([3]; any of the protists): did not show any efficacy | EC50 [4]: 4.39 µM

CC(C)(C)OC(=O)Nc1cccc(C(=O)/C=C/c2ccc(/C=C/C(=O)NO)cc2)c1 [MC2780]
pan-parasite potential ([3]; across parasites screened): demonstrated pan-parasite potential

CCCCCCCC(=O)SCC/C=C/[C@@H]1CC(=O)NCc2nc(cs2)C2=N[C@@](C)(CS2)C(=O)N[C@@H](C(C)C)C(=O)O1 [SD-L-148, Largazole, reference compound]
IC50 ([2]; Mus musculus, L929): 0.101 µM | IC50 [5]: 7.1 µM
